Measurements taken from US20240298646A1, “ANTIBIOFILM PRESERVATIVE COMPOSITIONS” (SHARON PERSONAL CARE LTD., priority 2021, published 2024).

Legend:
Assay in all cases: Minimum inhibitory concentration (MIC) and checkerboard assay
Type in all cases: cell-based
Details in all cases: unit assumed
[1] = test system: Candida albicans (ATCC 10231)
From the text: (§1) Escherichia coli (ATCC 8739), Staphylococcus aureus (ATCC 6538), P. aeruginosa (ATCC 9027), Candida albicans (ATCC 10231), and Aspergillus brasiliensis (ATCC 16404) were obtained from ATCC and cultured according to the manufacturer's instructions. These microorganisms are routinely used for minimum inhibitory concentration (MIC), checkerboards and challenge tests according to the US and EU recommendations for the efficacy of preservatives in the cosmetic industry. Bacterial strains were maintained in tryptic soy agar (TSA) (Hy-labs, Rehovot, Israel), while yeast and mold strains were maintained in sabouraud dextrose agar (SDA) (Hy-labs, Israel), supplemented with oxytetracycline at a concentration of 1% (Hy-labs, Israel). […] Briefly, growth of E. coli, S. aureus, P. aeruginosa, P. gergoviea, B. cepacia, C. albicans, and A. brasiliensis was observed during incubation with two-fold serial dilutions of the abovementioned compounds in Mueller Hinton (MH) broth, using a 96-well plate (BIOFUL, Israel). For the checkerboard assay using a 96-well plate, decreasing concentrations of one compound were added from top to bottom of the plate using serial dilutions. Decreasing concentrations of the second compound were added to the plate from the right, having the highest concentration, to the left side of the plate with the lowest concentration. […] Bacteria inoculated plates were incubated for 24 h at 32° C. with shaking, while fungi inoculated plates were incubated at 23° C. for 48-72 h with shaking. Microorganism growth was evaluated by a spectrophotometer O.D. reads (BioTek, Israel). In additional exemplary procedure, MIC evaluation test with Candida albicans was performed in test tubes. Growth in this case is visually evaluated. A pure culture of a single microorganism was grown in Tryptic soy broth, or Sabouraud dextrose broth for yeast and mold. […] While the MIC is defined as the lowest concentration of molecule alone or in combination that inhibited visible growth, the in vitro interactions can be quantified as FICI and calculated using the following formula: […]

[2] = test system: P. aeruginosa (ATCC 9027)
From the text: (§2) Escherichia coli (ATCC 8739), Staphylococcus aureus (ATCC 6538), P. aeruginosa (ATCC 9027), Candida albicans (ATCC 10231), and Aspergillus brasiliensis (ATCC 16404) were obtained from ATCC and cultured according to the manufacturer's instructions. These microorganisms are routinely used for minimum inhibitory concentration (MIC), checkerboards and challenge tests according to the US and EU recommendations for the efficacy of preservatives in the cosmetic industry. Bacterial strains were maintained in tryptic soy agar (TSA) (Hy-labs, Rehovot, Israel), while yeast and mold strains were maintained in sabouraud dextrose agar (SDA) (Hy-labs, Israel), supplemented with oxytetracycline at a concentration of 1% (Hy-labs, Israel). […] Briefly, growth of E. coli, S. aureus, P. aeruginosa, P. gergoviea, B. cepacia, C. albicans, and A. brasiliensis was observed during incubation with two-fold serial dilutions of the abovementioned compounds in Mueller Hinton (MH) broth, using a 96-well plate (BIOFUL, Israel). For the checkerboard assay using a 96-well plate, decreasing concentrations of one compound were added from top to bottom of the plate using serial dilutions. Decreasing concentrations of the second compound were added to the plate from the right, having the highest concentration, to the left side of the plate with the lowest concentration. […] Bacteria inoculated plates were incubated for 24 h at 32° C. with shaking, while fungi inoculated plates were incubated at 23° C. for 48-72 h with shaking. Microorganism growth was evaluated by a spectrophotometer O.D. reads (BioTek, Israel). The culture is standardized using standard microbiological techniques to have a concentration of very near 1 million cells per milliliter. The antimicrobial agent is diluted a number of times, with Tryptic soy broth or Sabouraud broth for fungi. After the antimicrobial agent had been diluted, a volume of the standardized inoculums was added to each dilution vessel, bringing the microbial concentration to approximately 1,000,000 cells per milliliter. The inoculated, serially diluted antimicrobial agent was incubated at an appropriate temperature for the test organism, 24 hours for bacteria 48 for yeast and 72 for mold. […] The microorganism strains used for the test were E. coli ATCC 8739, P. aeruginosa ATCC 9027, S. aureus ATCC 6538, C. albicans ATCC 10231, A. brasiliensis ATCC 16404. Measuring synergy between preservatives can be done by the widely described Fractional Inhibitory Concentration Index (FICI). While the MIC is defined as the lowest concentration of molecule alone or in combination that inhibited visible growth, the in vitro interactions can be quantified as FICI and calculated using the following formula: […]

[3] = test system: Staphylococcus aureus (ATCC 6538)
From the text: as §2

[4] = test system: Escherichia coli (ATCC 8739)
From the text: as §2

[5] = test system: Aspergillus brasiliensis (ATCC 16404)
From the text: as §1, with “In another” for “In additional”, “with A. brasiliensis” for “with Candida albicans”, “Sabouraud” for “Sabouraud dextrose”

Row | MIC C. albicans [1] | MIC P. aeruginosa [2] | MIC S. aureus [3] | MIC E. coli [4] | MIC A. brasiliensis [5] | SMILES
1 | 1880 µg/mL | 1250 µg/mL | 5000 µg/mL | 5000 µg/mL | 1250 µg/mL | Cc1occc(=O)c1O [Maltol, maltol]
2 | 2500 µg/mL | > 5000 µg/mL | 2500 µg/mL | 5000 µg/mL | 1250 µg/mL | CCCCC(CC)COCC(O)CO (stereo not drawn) [EHG, ethylhexylglycerin]

Row | SMILES | MIC C. albicans [1] | MIC P. aeruginosa [2] | MIC S. aureus [3] | MIC E. coli [4] | MIC A. brasiliensis [5]
3 | CC(=O)[O-].CC(=O)[O-].[Zn+2] [Zinc Acetate, zinc acetate] | 110 µg/mL | 312 µg/mL | 160 µg/mL | 312 µg/mL | 100 µg/mL
